Results published in PubChem BioAssay AID330 (DTP/NCI, 2004).
Several values for one entry are separate records, joined by “and”; a condition that tells them apart may be missing. Equal entries are not always repeated. Toxic doses and inconclusive results are not listed. Rule for the calls: active = survival T/C of 150% or more; inactive = T/C below 125% in these data. Peptide text beside a SMILES is read from it. * marks the point of attachment. For = O=C*

System: P388 leukemia ip, CD2F1 mice, survival T/C
Experiment: NCI In Vivo Anticancer Drug Screen. Data for tumor model P388 Leukemia (intraperitoneal) in CD2F1 (CDF1) mice
Settings: endpoint: median survival time, higher = longer survival
Outline: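 Mice carrying the transplanted tumor received test compound or vehicle. Survival was recorded in each group, and the value is the treated-group measurement divided by that of the vehicle-treated control group.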

[1] = dose: 50.0 mg/kg/injection, schedule: Q01DX009 (ip), vehicle: saline
[2] = dose: 50.0 mg/kg/injection, schedule: Q01DX005 (ip), vehicle: Klucel (hydroxypropylcellulose) (HPC)
[3] = dose: 100.0 mg/kg/injection, schedule: Q01DX005 (ip), vehicle: Klucel (hydroxypropylcellulose) (HPC)
[4] = dose: 200.0 mg/kg/injection, schedule: Q01DX005 (ip), vehicle: Klucel (hydroxypropylcellulose) (HPC)

Measured: T/C

FC(F)(F)C1=C(C(F)(F)F)OP23(OCCC(CO2)O3)O1 (stereo not drawn)
inactive: dose: 50.0 mg/kg/injection, schedule: Q04DX003 (ip), vehicle: Klucel (hydroxypropylcellulose) (HPC) 105 % of control | dose: 100.0 mg/kg/injection, schedule: Q04DX003 (ip), vehicle: Klucel (hydroxypropylcellulose) (HPC) 108 % of control | dose: 200.0 mg/kg/injection, schedule: Q04DX003 (ip), vehicle: Klucel (hydroxypropylcellulose) (HPC) 99 % of control | dose: 400.0 mg/kg/injection, schedule: Q04DX003 (ip), vehicle: Klucel (hydroxypropylcellulose) (HPC) 103 % of control

Nc1cc(=O)c2[nH]cnc2[nH]1
inactive: dose: 12.5 mg/kg/injection, schedule: Q01DX009 (ip), vehicle: saline 103 % of control | dose: 25.0 mg/kg/injection, schedule: Q01DX009 (ip), vehicle: saline 90 % of control | dose: 50.0 mg/kg/injection, schedule: Q01DX005 (ip), vehicle: saline with Tween-80 101 % of control | [1] 98 % of control and 101 % of control | dose: 100.0 mg/kg/injection, schedule: Q01DX005 (ip), vehicle: saline with Tween-80 106 % of control | dose: 100.0 mg/kg/injection, schedule: Q01DX009 (ip), vehicle: saline 103 % of control | dose: 200.0 mg/kg/injection, schedule: Q01DX005 (ip), vehicle: saline with Tween-80 107 % of control | dose: 200.0 mg/kg/injection, schedule: Q01DX009 (ip), vehicle: saline 88 % of control

CCN1CCn2c(c(COC(=O)NC(C)C)c(COC(=O)NC(C)C)c2-c2ccc(Cl)c(Cl)c2)C1
inactive: dose: 6.25 mg/kg/injection, schedule: Q01DX009 (ip), vehicle: distilled water + Tween-80 116 % of control | dose: 12.5 mg/kg/injection, schedule: Q01DX009 (ip), vehicle: distilled water + Tween-80 122 % of control | dose: 18.8 mg/kg/injection, schedule: Q01DX009 (ip), vehicle: distilled water + Tween-80 97 % of control | dose: 25.0 mg/kg/injection, schedule: Q01DX009 (ip), vehicle: distilled water + Tween-80 116 % of control | dose: 37.5 mg/kg/injection, schedule: Q01DX009 (ip), vehicle: distilled water + Tween-80 114 % of control

O=c1[nH]c2cc(Cl)ccc2nc1/C=C(\O)c1ccccn1
inactive: dose: 60.0 mg/kg/injection, schedule: Q01DX005 (ip), vehicle: Klucel (hydroxypropylcellulose) (HPC) 92 % of control | dose: 120.0 mg/kg/injection, schedule: Q01DX005 (ip), vehicle: Klucel (hydroxypropylcellulose) (HPC) 91 % of control | dose: 240.0 mg/kg/injection, schedule: Q01DX005 (ip), vehicle: Klucel (hydroxypropylcellulose) (HPC) 93 % of control

CSCCC(NC=O)C(=O)NC(C(=O)O)C(C)C (stereo not drawn) (For-Met-Val-OH; configuration not given here)
inactive: [2] 101 % of control | [3] 97 % of control | [4] 101 % of control

c1ccc(-c2nc3cc4ccccc4cc3nc2-c2ccccc2)cc1
inactive: [2] 105 % of control | [3] 100 % of control | [4] 99 % of control

O=[N+]([O-])c1cnc2n(O)cccc1-2
inactive: dose: 100.0 mg/kg/injection, schedule: Q01DX001 (ip), vehicle: saline with Tween-80 90 % of control | dose: 200.0 mg/kg/injection, schedule: Q01DX001 (ip), vehicle: saline with Tween-80 87 % of control

Nc1nc2c(c(=O)[nH]1)N(C(=O)c1ccc(S(=O)(=O)F)cc1)C(CNc1ccc(C(=O)NC(CCC(=O)O)C(=O)O)cc1)CN2 (stereo not drawn)
inactive: dose: 50.0 mg/kg/injection, schedule: Q04DX003 (ip), vehicle: other 104 % of control | dose: 100.0 mg/kg/injection, schedule: Q04DX003 (ip), vehicle: other 104 % of control | dose: 200.0 mg/kg/injection, schedule: Q04DX003 (ip), vehicle: other 113 % of control

C=CCn1c(C)nc2c(cnn2C)c1=O
inactive: [2] 101 % of control | [3] 110 % of control | [4] 104 % of control

O=C1CSC(c2c(F)cccc2Cl)N1c1cnccn1 (stereo not drawn)
inactive: dose: 25.0 mg/kg/injection, schedule: Q01DX005 (ip), vehicle: Klucel (hydroxypropylcellulose) (HPC) 99 % of control | [2] 102 % of control | [3] 101 % of control | [4] 106 % of control

COc1cc(OC)c2cc(C(=O)c3cccc4ccccc34)c(=O)oc2c1
inactive: dose: 60.0 mg/kg/injection, schedule: Q01DX005 (ip), vehicle: saline with Tween-80 102 % of control | dose: 120.0 mg/kg/injection, schedule: Q01DX005 (ip), vehicle: saline with Tween-80 114 % of control | dose: 240.0 mg/kg/injection, schedule: Q01DX005 (ip), vehicle: saline with Tween-80 91 % of control

O=[N+]([O-])/C=C/c1ccccc1Cl
inactive: dose: 10.0 mg/kg/injection, schedule: Q01DX009 (ip), vehicle: other 115 % of control | dose: 30.0 mg/kg/injection, schedule: Q04DX003 (ip), vehicle: other 118 % of control

CC#CCOCC1CO1 (stereo not drawn)
inactive: dose: 14.6 mg/kg/injection, schedule: Q01DX009 (ip), vehicle: saline 100 % of control | dose: 22.0 mg/kg/injection, schedule: Q01DX009 (ip), vehicle: saline 109 % of control | dose: 33.0 mg/kg/injection, schedule: Q01DX009 (ip), vehicle: saline 118 % of control | [1] 118 % of control

CN1C(=C2C=CC(=NS(=O)(=O)c3ccc(Cl)cc3)C=C2)Sc2ccccc21
inactive: dose: 100.0 mg/kg/injection, schedule: Q04DX003 (ip), vehicle: saline 105 % of control | dose: 200.0 mg/kg/injection, schedule: Q04DX003 (ip), vehicle: saline 106 % of control | dose: 400.0 mg/kg/injection, schedule: Q04DX003 (ip), vehicle: saline 100 % of control

COc1cccc(CCNC(=O)CCN2C(=O)CCC2=O)c1
inactive: dose: 100.0 mg/kg/injection, schedule: Q01DX009 (ip), vehicle: saline with Tween-80 105 % of control | dose: 200.0 mg/kg/injection, schedule: Q01DX009 (ip), vehicle: saline with Tween-80 100 % of control | dose: 400.0 mg/kg/injection, schedule: Q01DX009 (ip), vehicle: saline with Tween-80 110 % of control
